Source: patent US9157105B2, “Biosynthesis of CMP-legionaminic acid from fructose-6-P, and respective pathway intermediates, using novel GDP-linked precursors” (priority 2008, dated 2015)

Columns and labels:
[1] = tested on: LegB (Cj1319, 4,6-dehydratase); assay: LegB C4,6 dehydratase reaction with NDP-sugars; type: biochemical, Campylobacter jejuni 11168
Procedure: (§1) Enzymatic reactions were performed for 4.5 h at 37° C., and then overnight at 25° C., with approximately 200 μg ml^−1 respective protein concentration using chemicals from Sigma (unless otherwise indicated). GDP-glucosamine biosynthesis. The ‘one-pot’ enzymatic synthesis of GDP-GlcN from Fru-6-P (I→IV) was accomplished using a 3 ml reaction containing His6PtmF, PtmAHis6, PgmLHis6, His6PtmE, 5 mM Fru-6-P (I), 10 mM L-Gln, 1 mM DTT, 5 mM MgCl2, 0.8 U ml^−1 pyrophosphatase, and 2.5 mM GTP in 25 mM Tris pH 7.5. Large-scale enzymatic synthesis of GDP-GlcN (IV) was accomplished using a 12 ml reaction containing 50 mM Tris pH 7.5, 1 mM GTP, 1 mM MgCl2, 0.8 U ml^−1 pyrophosphatase, 1.2 mM GlcN-1-P (III) and approximately 4.8 mg of His6PtmE. The large-scale enzymatic synthesis of GDP-GlcNAc was performed similar to that above, except the scale was increased five-fold and GlcNAc-1-P was used in place of GlcN-1-P (III). Assessment of His6PtmE substrate specificity was accomplished using 9 reactions, 80 μl each, containing 50 mM Tris pH 7.5, 2 mM MgCl2, 50 μg His6PtmE, and various combinations of 10 mM sugar-1-P (GalN-1-P, GlcN-1-P or GlcNAc-1-P) and 0.2 mM NTP (CTP, GTP, or TTP). Conversion of GDP-GlcN to GDP-GlcNAc. The His6GlmU reaction was performed using 1 mM GDP-GlcN (IV), 1.2 mM acetyl-CoA and His6GlmU in 25 mM sodium phosphate pH 7.8, 25 mM NaCl, 10 mM β-mercaptoethanol. In addition, a control reaction was performed containing 1 mM GlcN-1-P (III) instead of IV. Biosynthesis of legionaminic acid from GDP-GlcNAc. The stepwise enzymatic synthesis of intermediates or products was accomplished in 2 stages (V→VI→VII→VIII, and then VIII→IX→X) using 1 mM of V, 0.5 mM NAD, 0.8 mM PLP, 8 mM L-Glu, 1.2 mM acetyl-CoA, 1.2 mM PEP, LegBHis6, His6LegC, His6LegH, His6LegG, and His6LegI as appropriate, in 25 mM sodium phosphate pH 7.3, 25 mM NaCl. Assessment of His6LegG activity involved monitoring the reaction kinetics by ^1H NMR (see NMR spectroscopy) for 75 min using 0.75 mM GDP-2,4-diacetamido-2,4,6-trideoxy-α-D-Glc (VIII), 4 μg His6LegG in 200 μl of 25 mM sodium phosphate pH 7.3, 25 mM NaCl at 25° C. In addition, the substrate flexibility of His6LegG was assessed using a 300 μl reaction containing 40 μg His6LegG, 25 mM sodium phosphate pH 7.3, 25 mM NaCl, and 0.75 mM UDP-2,4-diacetamido-2,4,6-trideoxy-α-D-Glc, with incubation at 37° C. for 1.5 h, and then overnight at 25° C. Biosynthesis of CMP-legionaminic acid. The CMP-activation of legionaminic acid (X→XI) was performed using a 20 ml reaction containing approximately 0.2 mM of X, 50 mM MgCl2, 3 mM CTP, and 15 mg of LegFHis6 in 25 mM sodium phosphate pH 7.8, 25 mM NaCl, with incubation at 37° C. for 5 h, and then 25° C. for 72 h. Metabolite purification. Typically, reactions were passed through an Amicon Ultra-15 (10,000 molecular weight cut-off) or Ultra-4 (5,000 molecular weight cut-off) filter membrane before analysis. As required, NDP-sugar preparations (GDP-Glc, GDP-GlcN, GDP-GlcNAc, CDP-GlcNAc, TDP-GlcNAc, and CMP-Leg) were lyophilized and desalted/purified using a Superdex Peptide 10/300 GL (Amersham Biosciences) column in 25 mM ammonium bicarbonate, pH 7.9. For further purity, the NDP-sugar samples above were subjected to anion-exchange chromatography (Mono Q 4.6/100 PE, Amersham Biosciences) using ammonium bicarbonate pH 7.9. Quantification of NDP-sugar preparations was determined using the molar extinction coefficients of CMP (ε260=7,400), GDP (ε260=11,500), TDP (ε260=8,700), and UDP (ε260=10,000).
CE analysis was performed using either a P/ACE 5510 or P/ACE MDQ system (Beckman Instruments, Mississauga, Ont) with diode array detection. The capillaries were bare silica 50 μm×50 cm, with a detector at 50 cm, and the running buffer was 25 mM sodium tetraborate pH 9.4. Samples were introduced by pressure injection for 6 sec, and the separation was performed at 18 kV for 20 min. Peak integration was done using the Beckman P/ACE station software.

[2] = biological target: T1, His6GlmU (Cj0821, N-acetyltransferase) (Campylobacter jejuni subsp. jejuni serotype O:2, UniProt Q9PPA2); assay: His6GlmU N-acetylation reaction (CE-MS); type: biochemical, Campylobacter jejuni 11168; conditions: 1 mM substrate, 1.2 mM acetyl-CoA
T1 construct: made in house; host or cells: E. coli BL21[DE3]
Procedure: (§2) Enzymatic reactions were performed for 4.5 h at 37° C., and then overnight at 25° C., with approximately 200 μg ml^−1 respective protein concentration using chemicals from Sigma (unless otherwise indicated). GDP-glucosamine biosynthesis. The ‘one-pot’ enzymatic synthesis of GDP-GlcN from Fru-6-P (I→IV) was accomplished using a 3 ml reaction containing His6PtmF, PtmAHis6, PgmLHis6, His6PtmE, 5 mM Fru-6-P (I), 10 mM L-Gln, 1 mM DTT, 5 mM MgCl2, 0.8 U ml^−1 pyrophosphatase, and 2.5 mM GTP in 25 mM Tris pH 7.5. Large-scale enzymatic synthesis of GDP-GlcN (IV) was accomplished using a 12 ml reaction containing 50 mM Tris pH 7.5, 1 mM GTP, 1 mM MgCl2, 0.8 U ml^−1 pyrophosphatase, 1.2 mM GlcN-1-P (III) and approximately 4.8 mg of His6PtmE. The large-scale enzymatic synthesis of GDP-GlcNAc was performed similar to that above, except the scale was increased five-fold and GlcNAc-1-P was used in place of GlcN-1-P (III). […] In addition, the substrate flexibility of His6LegG was assessed using a 300 μl reaction containing 40 μg His6LegG, 25 mM sodium phosphate pH 7.3, 25 mM NaCl, and 0.75 mM UDP-2,4-diacetamido-2,4,6-trideoxy-α-D-Glc, with incubation at 37° C. for 1.5 h, and then overnight at 25° C. […] Quantification of NDP-sugar preparations was determined using the molar extinction coefficients of CMP (ε260=7,400), GDP (ε260=11,500), TDP (ε260=8,700), and UDP (ε260=10,000). […]

[3] = biological target: T2, His6LegG (Cj1328, NDP-sugar hydrolase/2-epimerase) (Campylobacter jejuni subsp. jejuni serotype O:2, UniProt Q0P8T0); assay: His6LegG activity and substrate flexibility (1H NMR, CE); type: biochemical, Campylobacter jejuni 11168
T2 construct: made in house; host or cells: E. coli BL21[DE3]
Procedure: as §1, with “The CMP-activation of legionaminic acid (X→XI) was performed using a 20 ml reaction containing approximately 0.2 mM of X, 50 mM MgCl2, 3 mM CTP, and 15 mg of LegFHis6 in 25 mM sodium phosphate pH 7.8, 25 mM NaCl, with incubation at 37° C. for 5 h, and then 25° C. for 72 h. Metabolite purification. Typically, reactions were passed through an Amicon Ultra-15 (10,000 molecular weight cut-off) or Ultra-4 (5,000 molecular weight cut-off) filter membrane before analysis. As required, NDP-sugar preparations (GDP-Glc, GDP-GlcN, GDP-GlcNAc, CDP-GlcNAc, TDP-GlcNAc, and CMP-Leg) were lyophilized and desalted/purified using a Superdex Peptide 10/300 GL (Amersham Biosciences) column in 25 mM ammonium bicarbonate, pH 7.9. For further purity, the NDP-sugar samples above were subjected to anion-exchange chromatography (Mono Q 4.6/100 PE, Amersham Biosciences) using ammonium bicarbonate pH 7.9.” left out, “(ε260=10,000). […]” for “(ε260=10,000).”

[4] = tested on: LegC (Cj1320, PLP-dependent aminotransferase); assay: LegC aminotransferase reaction; type: biochemical, Campylobacter jejuni 11168; conditions: L-Glu
Procedure: as §2

[5] = tested on: LegH (Cj1298, N-acetyltransferase); assay: LegH N-acetyltransferase reaction; type: biochemical, Campylobacter jejuni 11168; conditions: acetyl-CoA
Procedure: as §2

[6] = biological target: T3, PglD (N-acetyltransferase) (Campylobacter jejuni subsp. jejuni serotype O:2, UniProt Q0P9D1); assay: PglD N-acetyltransferase reaction; type: biochemical; conditions: acetyl-CoA
T3 construct: His6 (C); made in house; host or cells: E. coli BL21[DE3]
T3 sequence (Q0P9D1 whole entry): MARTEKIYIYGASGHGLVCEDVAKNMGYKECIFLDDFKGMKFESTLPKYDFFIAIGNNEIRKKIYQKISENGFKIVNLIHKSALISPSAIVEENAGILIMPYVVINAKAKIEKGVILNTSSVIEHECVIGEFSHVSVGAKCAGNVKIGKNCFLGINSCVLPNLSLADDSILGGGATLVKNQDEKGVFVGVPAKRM

T1 sequence (Q9PPA2 whole entry): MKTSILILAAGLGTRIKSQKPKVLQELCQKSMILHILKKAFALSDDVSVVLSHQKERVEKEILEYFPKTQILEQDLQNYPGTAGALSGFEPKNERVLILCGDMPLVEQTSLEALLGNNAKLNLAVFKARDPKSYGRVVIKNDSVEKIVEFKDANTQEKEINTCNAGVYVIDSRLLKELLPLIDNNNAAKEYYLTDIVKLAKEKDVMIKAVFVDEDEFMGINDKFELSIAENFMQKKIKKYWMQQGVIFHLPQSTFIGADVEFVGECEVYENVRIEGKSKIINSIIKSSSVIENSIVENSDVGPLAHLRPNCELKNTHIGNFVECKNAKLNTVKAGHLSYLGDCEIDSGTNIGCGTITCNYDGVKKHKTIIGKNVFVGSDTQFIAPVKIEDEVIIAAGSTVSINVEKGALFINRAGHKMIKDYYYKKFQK
T2 sequence (Q0P8T0 whole entry): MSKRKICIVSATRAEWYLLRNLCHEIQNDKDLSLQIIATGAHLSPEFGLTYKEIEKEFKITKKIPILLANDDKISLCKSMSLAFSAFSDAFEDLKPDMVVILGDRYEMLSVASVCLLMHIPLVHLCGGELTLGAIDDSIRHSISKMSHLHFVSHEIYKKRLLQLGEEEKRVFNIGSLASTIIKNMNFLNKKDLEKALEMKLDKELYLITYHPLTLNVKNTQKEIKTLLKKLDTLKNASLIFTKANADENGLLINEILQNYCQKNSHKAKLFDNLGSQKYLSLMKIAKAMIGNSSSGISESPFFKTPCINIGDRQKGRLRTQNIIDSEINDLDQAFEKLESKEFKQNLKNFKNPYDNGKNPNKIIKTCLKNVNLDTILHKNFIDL

SMILES: Nc1nc2c(ncn2C2OC(COP(=O)(O)OP(=O)(O)OC3OC(CO)C(O)C(O)C3N)C(O)C2O)c(=O)[nH]1 [IV, GDP-α-D-glucosamine]
- LegB reaction product formation ([1]; in the presence or absence of NAD(P)+): did not yield discernable product
- GlmU N-acetylation of substrate (conversion of IV to V) [2]: not to completion

SMILES: CC(=O)N[C@H]1[C@@H](OP(=O)(O)OP(=O)(O)OC[C@H]2O[C@@H](n3cnc4c(=O)[nH]c(N)nc43)[C@H](O)[C@@H]2O)O[C@H](CO)[C@@H](O)[C@@H]1O [V, GDP-N-acetyl-α-D-glucosamine]
- LegB C4,6 dehydration of substrate ([1]; NAD+ added exogenously): efficient turnover
- LegB C4,6 dehydration of substrate ([1]; reaction with substrate and LegB only, no exogenous NAD(P)+): failed
- LegG turnover of substrate assessed by CE [3]: moderate efficiency

SMILES: CC(=O)N[C@H]1[C@@H](OP(=O)(O)OP(=O)(O)OC[C@H]2O[C@@H](n3cnc4c(=O)[nH]c(N)nc43)[C@H](O)[C@@H]2O)O[C@H](C)C(=O)[C@@H]1O [VI, GDP-2-acetamido-2,6-dideoxy-α-D-xylo-hexos-4-ulose]
- LegC aminotransfer of substrate [4]: efficient aminotransfer

SMILES: CC(=O)NC1C(OP(=O)(O)OP(=O)(O)OCC2OC(n3cnc4c(=O)[nH]c(N)nc43)C(O)C2O)OC(C)C(N)C1O [VII, GDP-4-amino-4,6-dideoxy-N-acetyl-α-D-glucosamine]
- LegH conversion of VII to VIII [5]: 100%
- PglD N-acetyltransfer of substrate [6]: able to catalyze N-acetyltransfer
